The record followed here is ChEMBL document CHEMBL4732023, “Using NMR to identify binding regions for N and C-terminal Hsp90 inhibitors using Hsp90 domains” (RSC Med Chem, 2021).

In series [1] the target is T1, Heat shock protein HSP90 (Homo sapiens, UniProt P07900+P08238). The series is described as follows: Binding affinity to HSP90 C-terminal domain (unknown origin) by biochemical assay. The format is protein assay.
Series [2] has as its target T1, Heat shock protein HSP90. The series is described as follows: Binding affinity to recombinant His6-tagged HSP90 C-domain (unknown origin) (553 to 732 residues) expressed in Escherichia coli BL21 (DE3) (DNAY) cells assessed as dissociation constant by 15N-1H TROSY-HSQC NMR spectroscopy.
The target in series [3] is T1, Heat shock protein HSP90. In words: Binding affinity to recombinant His6-tagged HSP90 C-domain (unknown origin) (553 to 732 residues) expressed in Escherichia coli BL21 (DE3) (DNAY) cells assessed as chemical shift perturbation at protein to compound ratio of 1:1.6 by 15N-1H TROSY-HSQC NMR spectroscopy.
The nature of series [4]: Solubility of compound in water. Particulars: buffer. The format is physicochemical.

Values after ≈ are worked out from the molar mass of the structure shown. Active and inactive are the calls of the source. No cut-off for these calls is given here. Where a SMILES comes first, the peptide text is derived from it. [ ]: non-standard residue; d: D form. dAla(4-thiazolyl) = N[C@H](Cc1cscn1)C(=O)O; dDip = N[C@@H](C(=O)O)C(c1ccccc1)c1ccccc1; NMeV = CN[C@H](C(=O)O)C(C)C

For the compound `COc1cc([C@H]2Oc3cc([C@H]4Oc5cc(O)cc(O)c5C(=O)[C@@H]4O)ccc3O[C@@H]2CO)ccc1O` [SILYBIN A], the equilibrium dissociation constant (Kd) in series [1] turned out to be 500 µM.

As to `NCCCC[C@@H]1NC(=O)[C@H](Cc2ccccc2)NC(=O)[C@H](Cc2ccc(O)cc2)NC(=O)[C@H](CO)NC(=O)[C@H](CC(N)=O)NC1=O` (cyclo(KNSYF)), the Kd in series [2] turned out to be 19.8 µM; in series [1], 45 µM. The outcome in series [3] was Active.

Consider `CC(C)C[C@@H]1NC(=O)[C@H](C(C)C)N(C)C(=O)[C@@H](CC(C)C)NC(=O)[C@@H](Cc2cscn2)NC(=O)[C@@H](C(c2ccccc2)c2ccccc2)NC1=O` (cyclo(L[dDip][dAla(4-thiazolyl)][dL][NMeV])), for which the outcome in series [2] was Active. The compound also yielded a solubility in series [4] of 200 µM (≈ 143 µg/mL).

Broadly, the Kd is the equilibrium constant for the complex coming apart. The term solubility denotes the dissolved amount per volume that the medium holds. A higher solubility goes with a readily soluble substance.
